Laboratory results taken from patent publication US20250288576A1, “SPECIFIC TETRADENTATE COPPER CHELATORS AS ANTICANCER AGENTS” (Guangdong University of Technology, priority 2024, published 2025).
Blank lines part the entries; values can stand above or below the compound they belong to.

Key:
[1] = test system: immortalized keratinocyte cell line HaCaT; test: MTT cell viability assay, HaCaT (non-cancer reference); type: cell-based, human; conditions: 48 h incubation, non-cancer cells, mean ± SD of at least three experiments
Description: (§1) The cytotoxicity of several compounds from the TDMQ series, especially TDMQ20, was evaluated on several human cancer cell lines. The clinically used anticancer drug 5-fluorouracil (5-FU) was used as comparator.
(§2) The targeted human cancer lines were 1) the metastatic melanoma A375, 2) the non-small cell lung adenocarcinoma A549, 3) the melanoma COLO-829, 4) the cervical cancer HeLa, 5) the hepatocellular carcinoma HepG2. The human immortalized keratinocyte cell line HaCaT was used as non-cancer reference cell line.
(§3) The MTT test was used to measure the cell viability. In this test, the applied colorless tetrazolium salt is reduced by mitochondrial succinate dehydrogenase, thus producing the violet formazan derivative that is quantified by UV-visible spectrometry at 570 nm.

[2] = test system: metastatic melanoma A375; test: MTT cell viability assay, A375; type: cell-based; conditions: Homo sapiens, A-375, 48 h incubation, mean ± SD of at least three experiments
Description: as §1, §2, §3

[3] = test system: melanoma COLO-829; test: MTT cell viability assay, COLO-829; type: cell-based; conditions: Homo sapiens, 48 h incubation, mean ± SD of at least three experiments
Description: as §1, §2, §3

[4] = test system: non-small cell lung adenocarcinoma A549; test: MTT cell viability assay, A549; type: cell-based, human; conditions: for IC50: MTT, 48 h incubation, mean ± SD of at least three experiments
Description: as §1, §2, §3

[5] = test system: hepatocellular carcinoma HepG2; test: MTT cell viability assay, HepG2; type: cell-based, human; conditions: 48 h incubation, mean ± SD of at least three experiments
Description: as §1, §2, §3

[6] = test system: cervical cancer HeLa; test: MTT cell viability assay, HeLa; type: cell-based, human; conditions: 48 h incubation, mean ± SD of at least three experiments
Description: as §1, §2, §3

[7] = test system: HeLa cells; test: Wound healing assay (scratch assay); type: cell-based, human; conditions: 14.5 μM, 24 h
Description: (A) Representative images of wounds formed by HeLa cells after treatment with TDMQ20. (B) Quantitative analysis of the wound closure upon treatment by TDMQ20. ****p<0.0001 vs. control. “Control” stands for untreated cells. Scale bar: 250 μm.
Wound healing assay (or “scratch assay”). The migratory ability of Hela cells in the presence of TDMQ20 was evaluated using the wound healing assay monitored by optical microscopy. Measurement after 24 h of the width of the “wound” created in a cell monolayer quantify the migration rate of the cells to close the wound. This method mimics cell migration during wound healing in vivo. For cancer cells, cell migration is involved in several processes such as tumor invasion, neo-angiogenesis and metastasis (X. Wang et al., BMC Pharmacol. Toxicol. 2019, 20, 4).

[8] = test system: HeLa cells; test: Apoptosis, annexin V-FITC/PI flow cytometry; type: cell-based, human; conditions: 48 h incubation
Description: FIG. 3. Pro-apoptotic activity of TDMQ20 on HeLa cells after 48 h of incubation. (A) Quantitative analysis of necrotic cells (quadrant Q1), early apoptotic cells (quadrant Q2), advanced apoptotic cells (quadrant Q3) and non-apoptotic cells (quadrant Q4), using annexin V/propidium iodide (PI) staining and detection by flow cytometry. “Control” stands for untreated cells. (B) Histograms represent the proportion of apoptotic cells (Q2+Q3) within the flow cytometry charts; “ns” stands for p>0.05, ****p<0.0001 vs. control.
The pro-apoptotic activity of TDMQ20 in Hela cells was evaluated after 48 h of incubation with the drug, using the annexin V-FITC/PI method (FITC and PI stand for fluoresceine-5-isothiocyanate and propidium iodide, respectively). After staining, live cells show little or no fluorescence (annexin V−/PI−), early apoptosis cells show green fluorescence (annexin V+/PI−), late apoptosis cells and necrosis cells show red and green fluorescence (annexin V+/PI+). Cells were detected by flow cytometry. IDEAS software was used for acquisition of data and FlowJo v. X software was used for analysis of data. The total proportion of apoptotic cells, including early apoptosis (quadrants Q2) or late apoptosis (quadrants Q3) or necrosis (quadrants Q1), accounted for 51%, 15% and 9% when HeLa cells were treated with TDMQ20 at the concentration of […], 7.3 μM and 3.7 μM, respectively. So, TDMQ20 induced the apoptosis of HeLa cells in a dose-dependent manner.

[9] = test system: HeLa cells; test: Mitochondrial membrane potential, JC-1 staining flow cytometry; type: cell-based, human; conditions: increasing concentration of TDMQ20, 48 h
Excerpt: FIG. 5. (A) Red/green fluorescence of HeLa cells treated with various concentrations of TDMQ20, and stained by JC-1, as an indirect measure of mitochondrial membrane potential (ΔΨm). Detection by flow cytometry. (B) Histograms presenting data of panel A as mean values of three independent experiments±SD; ****p<0.0001 vs. control.
The higher is the ΔΨm, the more elevated is the red shift of the dye (more aggregates formed); vice-versa, the lower is the ΔΨm of the mitochondria and the lower is the red to green ratio of the fluorescent marker (few aggregates formed). Therefore, the ratio of red/green fluorescence intensities is significant of mitochondrial integrity and function, and mitochondrial depolarization is indicated by a reduction in the red to green fluorescence intensity ratio.
This method was used to evaluate the mitochondrial membrane potential in HeLa cells incubated with various concentrations of TDMQ20 for 48 h, using staining with JC-1, and quantification by flow cytometry treated with the FlowJo v. X software.

[10] = test system: HeLa cells; test: ROS production, DCF fluorescence (H2DCF-DA) flow cytometry; type: cell-based, human; conditions: 48 h incubation
Description: FIG. 4. ROS production induced by TDMQ20 in HeLa cells, detected by DCF fluorescence after 48 h of incubation. ***p<0.001, ****p<0.0001.
The most straightforward technique for measuring the production of […] in cells is the use of the cell permeable fluorescent probe 2′,7′-dichlorodihydrofluorescein diacetate (H2DCF-DA). In the presence of ROS, predominantly H2O2, H2DCF is rapidly oxidized to 2′,7′-dichlorofluorescein (DCF) which is highly fluorescent, with excitation and emission wavelengths of 498 and 522 nm, respectively. The stained cells were analyzed by flow cytometry and analyzed by the FlowJo v.Xsoftware.

[11] = test system: HeLa cells; test: Colony-forming assay; type: cell-based, human; conditions: 14th day after treatment
Description: (A) Representative images of colonies formed by HeLa cells at the 14th day after treatment with increasing concentrations of TDMQ20. (B) Quantitative analysis of this clonogenicity assay. **p<0.01, ****p<0.0001 vs. control. “Control” stands for untreated cells.
Colony-forming assay. The proliferation of HeLa cells exposed to various concentrations of TDMQ20 was evaluated at the 14th day after treatment.

IC50 [2]: 68.5 ± 4 µM
IC50 [3]: 48.7 ± 0.7 µM
IC50 ([4]; Homo sapiens, A549, 48 h): 72.6 ± 10 µM
IC50 ([5]; Homo sapiens, HepG2, 48 h): 46.7 ± 4.7 µM
IC50 ([6]; Homo sapiens, HeLa, 48 h): 20.3 ± 4.6 µM
SMILES: O=c1[nH]cc(F)c(=O)[nH]1 [5-FU, 5-fluorouracil, reference compound]
IC50 ([1]; Homo sapiens, HaCaT, 48 h): 30 µM

IC50 [2]: 38.1 ± 7 µM
IC50 [3]: 40.2 ± 4.9 µM
IC50 ([4]; Homo sapiens, A549, 48 h): 14 to 16 µM
IC50 [4]: 16.2 ± 2.9 µM
IC50 [5]: 16.6 ± 4.7 µM
IC50 ([5]; Homo sapiens, HepG2, 48 h): 14 to 16 µM
IC50 [6]: 14.5 ± 0.8 µM
IC50 ([6]; Homo sapiens, HeLa, 48 h): 14 to 16 µM
SMILES: CN(C)CCNCCc1ccc2c(Cl)cc(Cl)c(N)c2n1 [TDMQ20]
HeLa cell migration to close a wound [7]: significantly inhibited
IC50 [1]: 41.1 ± 4.8 µM
IC50 ([1]; Homo sapiens, HaCaT, 48 h): 41 µM
Total proportion of apoptotic cells (early, late apoptosis, necrosis) ([8]; 3.7 μM): 9%
Total proportion of apoptotic cells (early, late apoptosis, necrosis) ([8]; 7.3 μM): 15%
Total proportion of apoptotic cells (early, late apoptosis, necrosis) ([8]; 14.5 μM): 51%
JC-1 red/green fluorescence ratio (mitochondrial transmembrane potential ΔΨm) [9]: drastic decrease
Cytotoxic activity relative to the reference drug 5-FU ([4]; lung adenocarcinoma A549 cells): four times higher
Fluorescence of DCF, % of the control cells ([10]; 3.7 μM): 125%
Fluorescence of DCF, % of the control cells ([10]; 7.3 μM): 138%
Fluorescence of DCF, % of the control cells ([10]; 14.5 μM): 150%
HeLa cells in colony-forming assay ([11]; TDMQ20 = 12 μM): not detectable
Number of HeLa cells in cultures (colony-forming ability) ([11]; increasing drug concentration from 1.5 to 12 μM): drastically decreased
